Results: the NIST ThermoML archive (doi:10.1021/je5005559)
± gives the expanded uncertainty stated by the source.

Experiments:
[1] = for mass density: 298.15 K, 101.33 kPa
[2] = Boiling temperature at pressure P; conditions: 101 kPa; Liquid; Distillation
[3] = refractive index (Na D-line) (dimensionless); conditions: 298.15 K; 101.33 kPa; Liquid; Standard Abbe refractometry

| mass density ([1]; Crystal, Pycnometric method) [kg/m3] | Normal melting temperature ([1]; Crystal, visual observation) [°C] | Structure (SMILES) | mass density ([1]; Liquid, Vibrating tube method) [kg/m3] | Boiling temperature at pressure P [2] [°C] | refractive index [3] |
| --- | --- | --- | --- | --- | --- |
| 1346 ± 3 | 105.70 ± 1.1 | Oc1ccccc1O [1,2-benzenediol] | – | – | – |
| – | – | CC(=O)CC(C)C [4-methylpentan-2-one] | 799 ± 2 | 116.60 ± 0.2 | 1.3965 ± 0.0008 |
